Laboratory results as given in US20150038473A1, “STABLE POVIDONE-IODINE COMPOSITIONS WITH STEROIDS OR NON-STEROIDAL ANTI-INFLAMMATORIES” (FORESIGHT BIOTHERAPEUTICS, INC., priority 2011, published 2015).
“And” between values parts separate entries of the source, which are not always exact repeats. Equal values may be shown once.

What was measured:
[1] = Stability testing of steroids and NSAIDS combined with 0.6% povidone iodine at room temperature
Experimental: Steroids and NSAIDS were mixed with PVP-I at the concentration of 0.6% w/w on Day 1. The resultant mixtures will be split to glass vials and stored at room temperature. fluorometholone alcohol, medrysone, prednisone sodium phosphate, rimexolone, hydrocortisone, hydrocortisone acetate, lodoxamide tromethamine, nepafenac, bromfenac, and ketorolac. Testing timepoints included day 0 (Time Zero), and week 4. Tests were conducted at room temperature. The testing samples were analyzed using liquid chromatography and tandem mass spectrometry (LC/MS/MS) methods at Day 0, and Week 4. The steroids and NSAIDS standards were also analyzed and steroids and NSAIDS levels in testing samples were determined.
For Tables VIII-XIII, a: Nominal concentration in HPLC samples; b: Calculated concentration in HPLC samples; c: Dilution factor; d: Calculated concentration in stability samples; e: Spiked 50 μL of H2O and stored at room temperature without PVP-I.

[2] = Stability testing of steroids combined with povidone iodine (PVP-I, 0.4%), HPLC/UV with LC-MS/MS confirmation; details: for degradation products observed: two week and/or one month samples in the presence of PVP-I 0.4%
Experimental: PVP-I was prepared in water at the concentration of 100 mg/mL (10%). One milliliter of the solution, suspension, or emulsion was mixed with 40 μL of 10% PVP-I in 1.5 mL amber glass vials, followed by storage under both room temperature and 40° C. for 2 weeks and one month. The resultant samples in the presence of PVP-I were analyzed using HPLC. The four steroid levels were measured against the reference standard samples stored under room temperature in the absence of PVP-I (0.4%).
Weigh 1 g of PVP-I and dissolve in 10 mL of water.
Aliquot 1 mL of ophthalmic solution (USP, 0.1%) into eight amber HPLC vials to give the following samples:
Used the resultant samples as time zero samples for HPLC analysis.
The same as Method 1 except the gradient was changed as follows: […]
The software provided with the HPLC system (LCSolution™ software, version 1.23, installed by SHIMADZU) was used to integrate the peak area.
The measured peak area was converted into concentrations (μg/mL) using the following equation: […]
HPLC Methods: The same as HPLC Method 1, 2, and 3 under Section 2.4.
The Day 0, Two Week, and One Month stability test samples were analyzed with reference standard samples (stored at room temperature in the absence of PVP I) using HPLC Method 1. The sample in the absence of PVP-I with the same concentration of dexamethasone phosphate as those stability samples at the presence of PVP-I was stored in the same stability chamber at 40° C. for one month as control sample. The control sample was analyzed under the same conditions. The concentrations of dexamethasone phosphate in the stability samples were calculated. The HPLC/UV chromatograms of all reference standards and stability testing samples are depicted in FIG. 6 to FIG. 13.
(§1) The Day 0, Two Week, and One Month stability test samples were analyzed with reference standard samples (stored at room temperature in the absence of PVP I) using HPLC Method 2. The sample in the absence of PVP-I with the same concentration of prednisolone acetate as those stability samples at the presence of PVP-I was stored in the same stability chamber at 40° C. for two week and one month as control samples. The control samples were analyzed under the same conditions. The concentrations of prednisolone acetate in the stability samples were calculated. The data were summarized in Table V. The HPLC/UV chromatograms of all reference standards and stability testing samples are depicted in FIG. 18 to FIG. 23.
as §1, with “3.” for “2.”, “loteprednol etabonate” for “prednisolone acetate”, “calculated.” for “calculated. The data were summarized in Table V.”, “28” for “18”, “33.” for “23.”
as §1, with “3.” for “2.”, “difluprednate” for “prednisolone acetate”, “calculated.” for “calculated. The data were summarized in Table V. The HPLC/UV chromatograms of all reference standards and stability testing samples are depicted in FIG. 18 to FIG. 23.”

[3] = Day 0, room temperature, 0.6% PVP-I, mean of replicates
[4] = Day 0, room temperature, 0.6% PVP-I, single replicates
[5] = four weeks control, spiked 50 μL of H2O, room temperature without PVP-I
[6] = four weeks, room temperature, 0.6% PVP-I, mean of replicates
[7] = four weeks, room temperature, 0.6% PVP-I, single replicates
[8] = 2 weeks, 40° C., with PVP-I 0.4%
[9] = 2 weeks, room temp, with PVP-I 0.4%
[10] = one month, 40° C., with PVP-I 0.4%, mean of two runs
[11] = one month, 40° C., with PVP-I 0.4%, single samples
[12] = one month, room temp, with PVP-I 0.4%
[13] = 2 weeks, 40° C. control, stored without PVP-I
[14] = Day 0, room temp, with PVP-I 0.4%, mean of replicates
[15] = Day 0, room temp, with PVP-I 0.4%, single replicates
[16] = one month, 40° C. control, stored without PVP-I

| % of Std [1, 3] [%] | % of Std [1, 4] | % of Day 0 [1, 5] [%] | % of Std [1, 5] [%] | % of Day 0 [1, 6] [%] | % of Std [1, 6] [%] | % of Day 0 [1, 7] | % of Std [1, 7] | % of Day 0 [2, 8] [%] | % of Day 0 [2, 9] [%] | % of Day 0 [2, 11] | % of Day 0 [2, 12] [%] | Structure (SMILES) | further results |
| --- | --- | --- | --- | --- | --- | --- | --- | --- | --- | --- | --- | --- | --- |
| 98.86 | 99.74% and 97.96% | 101.19 | 100.03 | 99.37 | 98.23 | 100.01% and 98.73% | 98.87% and 97.6% | – | – | – | – | Nc1c(CC(=O)O)cccc1C(=O)c1ccc(Br)cc1 [Bromfenac, bromfenac] | – |
| 98.7 | 98.22% and 99.18% | 100.06 | 98.76 | 97.2 | 95.94 | 97.83% and 96.58% | 96.56% and 95.32% | – | – | – | – | NC(=O)Cc1cccc(C(=O)c2ccccc2)c1N [Nepafenac, nepafenac] | – |
| – | – | – | – | – | – | – | – | – | – | – | – | N#Cc1cc(NC(=O)C(=O)O)c(Cl)c(NC(=O)C(=O)O)c1.NC(CO)(CO)CO.NC(CO)(CO)CO [lodoxamide, lodoxamide tromethamine] | stability in PVP-I (result in words) ([1]; 0.6% PVP-I, room temperature, week 4): appeared to be stable |
| – | – | – | – | – | – | – | – | 100.07 | 101.43 | 96.02% | 100.72 | CCOC(=O)O[C@]1(C(=O)OCCl)CC[C@H]2[C@@H]3CCC4=CC(=O)C=C[C@]4(C)[C@H]3[C@@H](O)C[C@@]21C [Loteprednol Etabonate] | % of Day 0 [2, 13]: 101.69%; % of Std [2, 13]: 101.69%; % of Std [2, 8]: 100.54%; % of Std [2, 9]: 101.91%; % of Std [2, 14]: 100.48%; % of Std [2, 15]: 101.00% and 99.95%; % of Day 0 [2, 16]: 97.64%; % of Std [2, 16]: 97.64%; % of Std [2, 11]: 96.48%; % of Std [2, 12]: 101.20% |
| 99.67 | 98.83% and 100.5% | 97.41 | 97.09 | 99.88 | 99.55 | 100.23% and 99.53% | 99.9% and 99.2% | – | – | – | – | CCC(=O)[C@@]1(C)[C@H](C)C[C@H]2[C@@H]3CCC4=CC(=O)C=C[C@]4(C)[C@H]3[C@@H](O)C[C@@]21C [Rimexolone, rimexolone] | – |
| 100.57 | 101.62% and 99.52% | 101.08 | 101.66 | 100.95 | 101.53 | 100.58% and 101.33% | 101.15% and 101.91% | – | – | – | – | CC(=O)OCC(=O)[C@@]1(O)CC[C@H]2[C@@H]3CCC4=CC(=O)CC[C@]4(C)[C@H]3[C@@H](O)C[C@@]21C [Hydrocortisone acetate, hydrocortisone acetate] | – |
| – | – | – | – | – | – | – | – | 99.30 | 103.23 | 100.24% | 104.47 | CCCC(=O)O[C@]1(C(=O)COC(C)=O)CC[C@H]2[C@@H]3C[C@H](F)C4=CC(=O)C=C[C@]4(C)[C@@]3(F)[C@@H](O)C[C@@]21C [Difluprednate] | % of Day 0 [2, 13]: 89.50%; % of Std [2, 13]: 89.50%; % of Std [2, 8]: 95.57%; % of Std [2, 9]: 99.36%; % of Std [2, 14]: 96.25%; % of Std [2, 15]: 95.78% and 96.72%; % of Day 0 [2, 16]: 97.86%; % of Std [2, 16]: 97.86%; % of Std [2, 11]: 96.48%; % of Std [2, 12]: 100.56% |
| – | – | – | – | – | – | – | – | 96.60 | 99.24 | 96.79% | 95.66 | CC(=O)OCC(=O)[C@@]1(O)CC[C@H]2[C@@H]3CCC4=CC(=O)C=C[C@]4(C)[C@H]3[C@@H](O)C[C@@]21C [Prednisolone Acetate] | % of Day 0 [2, 13]: 100.74%; % of Std [2, 13]: 100.74%; % of Std [2, 8]: 101.08%; % of Std [2, 9]: 103.84%; % of Std [2, 14]: 104.64%; % of Std [2, 15]: 104.83% and 104.45%; % of Day 0 [2, 16]: 100.29%; % of Std [2, 16]: 100.29%; % of Std [2, 11]: 101.28%; % of Std [2, 12]: 100.10% |
| 97.76 | 97.93% and 97.59% | 102.87 | 100.57 | 95.66 | 93.52 | 95.1% and 96.23% | 92.97% and 94.07% | – | – | – | – | C[C@]12C=CC(=O)C=C1CC[C@@H]1[C@@H]2C(=O)C[C@@]2(C)[C@H]1CC[C@]2(O)C(=O)COP(=O)([O-])[O-].[Na+].[Na+] [Prednisone sodium phosphate, prednisone sodium phosphate] | – |
| 101.28 | 101.42% and 101.14% | 97.97 | 99.22 | 98.44 | 99.7 | 98.03% and 98.87% | 99.28% and 100.14% | – | – | – | – | CC(=O)[C@@]1(O)CC[C@H]2[C@@H]3C[C@H](C)C4=CC(=O)C=C[C@]4(C)[C@@]3(F)[C@@H](O)C[C@@]21C [Fluorometholone, fluorometholone] | – |

| Structure (SMILES) | % of Std [1, 3] [%] | % of Std [1, 4] | % of Day 0 [1, 5] [%] | % of Std [1, 5] [%] | % of Day 0 [1, 6] [%] | % of Std [1, 6] [%] | % of Day 0 [1, 7] | % of Std [1, 7] | % of Day 0 [2, 8] [%] | % of Day 0 [2, 9] [%] | % of Day 0 [2, 11] | % of Day 0 [2, 12] [%] | further results |
| --- | --- | --- | --- | --- | --- | --- | --- | --- | --- | --- | --- | --- | --- |
| C[C@@H]1C[C@H]2[C@@H]3CCC4=CC(=O)C=C[C@]4(C)[C@@]3(F)[C@@H](O)C[C@]2(C)[C@@]1(O)C(=O)COP(=O)([O-])[O-].[Na+].[Na+] [Dexamethasone Sodium Phosphate] | – | – | – | – | – | – | – | – | 84.57 | 83.04 | 84.42% and 83.76% | 84.24 | stability in the presence of PVP-I (result in words) ([2]; PVP-I 0.4%, room temperature and 40° C., up to one month): not stable; % of Day 0 [2, 10]: 84.09%; % of Std [2, 10]: 87.00%; degradation products observed [2]: three additional peaks; degradation products observed ([2]; listed as dexamethasone phosphate): Three degradation products (D1, D2, and D3) were observed |
